Data from the CheMixHub drug solubility set.

Assay: xn = mol fraction of the nth substance listed, in the solute-free solvent

Cc1c(Br)c(=O)n(C2CCCC2)c2nc(Cl)ncc12 + CC1=CC(=O)CC(C)(C)C1 + CC(C)O
solubility (g/100 g solution)
Details	278.15 K	283.15 K	288.15 K	293.15 K	298.15 K	303.15 K	308.15 K	313.15 K	318.15 K	323.15 K
x2 = 0.1	0.104	0.147	0.203	0.285	0.388	0.522	0.702	0.929	1.27	1.59
x2 = 0.2	0.167	0.234	0.327	0.45	0.61	0.819	1.09	1.43	1.87	2.42
x2 = 0.3	0.232	0.325	0.45	0.614	0.828	1.11	1.47	1.92	2.49	3.21
x2 = 0.4	0.288	0.401	0.554	0.752	1.02	1.35	1.79	2.33	3.02	3.87
x2 = 0.5	0.332	0.458	0.633	0.862	1.16	1.54	2.03	2.65	3.43	4.39
x2 = 0.6	0.364	0.506	0.697	0.947	1.27	1.69	2.23	2.9	3.75	4.8
x2 = 0.7	0.391	0.543	0.746	1.01	1.37	1.82	2.39	3.12	4.02	5.14
x2 = 0.8	0.416	0.579	0.796	1.08	1.45	1.93	2.54	3.32	4.28	5.48
x2 = 0.9	0.441	0.613	0.844	1.15	1.54	2.05	2.7	3.52	4.55	5.82

NC(=O)NC1NC(=O)NC1=O (configuration not stated) + O + CO
solubility (g/100 g solution)
Details	288.15 K	293.15 K	298.15 K	303.15 K	308.15 K	313.15 K	318.15 K	323.15 K	328.15 K	333.15 K
x2 = 0.2	0.0735	0.0876	0.104	0.134	0.155	0.188	0.219	0.264	0.299	0.353
x2 = 0.359	0.114	0.138	0.175	0.205	0.255	0.297	0.357	0.443	0.521	0.582
x2 = 0.599	0.212	0.27	0.328	0.408	0.519	0.629	0.74	0.895	1.08	1.23
x2 = 0.771	0.239	0.328	0.424	0.526	0.694	0.866	1.06	1.28	1.55	1.94
x2 = 0.9	0.319	0.389	0.506	0.642	0.836	1.05	1.29	1.53	1.86	2.27

Cl.NC(Cc1ccccc1)C(=O)OCc1ccccc1 (configuration not stated) + CO + CC(C)=O
solubility (g/100 g solution)
Details	x2 = 0.1	x2 = 0.2	x2 = 0.3	x2 = 0.4	x2 = 0.5	x2 = 0.6	x2 = 0.7	x2 = 0.8	x2 = 0.9
283.15 K	0.104	0.31	1.34	2.29	3.85	5.52	7.5	9.27	11.1
293.15 K	0.238	0.665	1.52	2.75	4.55	6.53	8.94	11	13.1
303.15 K	0.306	0.778	1.83	3.37	5.58	7.97	10.7	13.6	15.5
313.15 K	0.482	0.999	2.35	4.15	6.96	9.8	13.2	15.8	18.4
323.15 K	0.588	1.3	2.96	5.13	8.44	12.1	15.8	19.4	21.6

CC1CCC2C(C)C(OC(=O)CCC(=O)O)OC3OC4(C)CCC1C32OO4 (configuration not stated) + CO + O
solubility (g/100 g solution)
Details	278.15 K	283.15 K	288.15 K	293.15 K	298.15 K	303.15 K	308.15 K	313.15 K	318.15 K
x2 = 0.05887	0.112	0.144	0.181	0.228	0.276	0.346	0.424	0.514	0.625
x2 = 0.1235	0.366	0.464	0.566	0.693	0.82	0.997	1.19	1.41	1.67
x2 = 0.1941	0.818	0.996	1.2	1.44	1.67	1.99	2.35	2.73	3.17
x2 = 0.2725	1.42	1.69	2	2.36	2.71	3.17	3.68	4.22	4.83
x2 = 0.36	2.09	2.46	2.87	3.34	3.8	4.37	5.01	5.65	6.39
x2 = 0.4579	2.79	3.23	3.73	4.29	4.84	5.49	6.23	6.99	7.79
x2 = 0.5666	3.54	4	4.58	5.22	5.83	6.54	7.36	8.18	9.06
x2 = 0.6924	4.36	4.87	5.46	6.22	6.9	7.65	8.52	9.37	10.3
x2 = 0.8362	5.15	5.63	6.33	7.1	7.82	8.58	9.48	10.4	11.2

CCOc1ccccc1C(N)=O + CC#N + CCO
323.15 K
Details	solubility (g/100 g solution)
x2 = 0.1	17.4
x2 = 0.2	19.8
x2 = 0.3	21.8
x2 = 0.4	23.3
x2 = 0.5	23.9
x2 = 0.6	23.3
x2 = 0.7	21.7
x2 = 0.8	19.3
x2 = 0.9	16.4

Nc1nc2ccc(OC(F)(F)F)cc2s1 + CCCO + O
solubility (g/100 g solution)
Details	278.15 K	283.15 K	288.15 K	293.15 K	298.15 K	303.15 K	308.15 K	313.15 K	318.15 K	323.15 K
x2 = 0.1138	11.3	12.7	13.8	14.7	15.4	16.1	16.7	17.1	17.7	18.2
x2 = 0.1666	19.6	21.1	22.3	23.1	24	24.9	25.7	26.4	27.5	28.6
x2 = 0.2306	33.4	34.7	35.8	37.2	38.1	39.2	40.1	40.9	41.9	42.8
x2 = 0.3103	39.9	40.9	42.4	43.4	45	46.2	47.9	49.2	50.6	52.4
x2 = 0.4116	53.3	56.1	58.5	60.7	63	64.6	66.3	67.6	68.7	69.7
x2 = 0.5454	54.6	56.3	57.9	59.9	61.7	63.6	65.3	66.6	67.9	68.7
x2 = 0.7292	48.8	50.6	52.6	54.6	56.6	58.2	60.2	61.6	63.1	64

C#CC1(O)C=CC2C3CCC4=CC(=O)CCC4C3CCC21CC (configuration not stated) + O + CO
288.15 K
Details	solubility (g/100 g solution)
x2 = 0.165	4.27
x2 = 0.3077	3.7
x2 = 0.4325	1.93
x2 = 0.5424	1.49
x2 = 0.6401	1
x2 = 0.8058	0.438
x2 = 0.8767	0.371
x2 = 0.9412	0.371

CCOc1ccccc1C(N)=O + CO + CC#N
solubility (g/100 g solution)
Details	x2 = 0.1	x2 = 0.2	x2 = 0.3	x2 = 0.4	x2 = 0.5	x2 = 0.6	x2 = 0.7	x2 = 0.8	x2 = 0.9
293.15 K	3.86	5.1	6.26	7.41	8.25	8.88	8.99	8.83	8.26
298.15 K	4.9	6.33	7.81	9.11	10.1	11	11.1	10.7	10.1
303.15 K	6.47	8.36	10.2	11.5	12.8	13.6	13.7	13.4	12.6
308.15 K	8.43	10.8	12.9	14.4	15.6	16.5	16.4	16.3	15.1
313.15 K	10.8	13.5	16	18.1	19.3	20.4	20.4	19.8	18.5
318.15 K	13.7	16.8	19.7	21.9	23.4	24.4	24.5	24	22.7
323.15 K	17.3	21	24	26.4	28.3	29.2	29.3	28.5	27.1

c1ccc(-c2ccc(C(c3ccccc3)n3ccnc3)cc2)cc1 (configuration not stated) + CCCO + O
solubility (g/100 g solution)
Details	278.15 K	283.15 K	288.15 K	293.15 K	298.15 K	303.15 K	308.15 K	313.15 K	318.15 K
x2 = 0.03225	0.0336	0.0464	0.0633	0.0834	0.101	0.139	0.185	0.229	0.288
x2 = 0.06974	0.0833	0.114	0.154	0.202	0.244	0.332	0.436	0.54	0.674
x2 = 0.1139	0.174	0.22	0.295	0.402	0.547	0.719	0.918	1.13	1.35
x2 = 0.1666	0.308	0.417	0.558	0.724	0.884	1.18	1.52	1.9	2.34
x2 = 0.2307	0.467	0.573	0.784	1.06	1.3	1.74	2.22	2.82	3.53
x2 = 0.3103	0.618	0.836	1.12	1.45	1.81	2.37	3.04	3.83	4.72
x2 = 0.4117	0.601	0.91	1.27	1.77	2.4	3.06	3.87	4.77	5.68
x2 = 0.5454	0.774	1.05	1.42	1.86	2.37	3.09	3.98	5.09	6.3
x2 = 0.7297	0.768	1.11	1.56	2.08	2.68	3.46	4.32	5.36	6.55

CC(S)C(=O)NCC(=O)O (configuration not stated) + CC(C)CO + CC#N
solubility (g/100 g solution)
Details	273.15 K	278.15 K	283.15 K	288.15 K	293.15 K	298.15 K	303.15 K	308.15 K	313.15 K	318.15 K
x2 = 0.1216	3.99	4.43	4.93	5.48	6.05	6.7	7.36	8.06	8.81	9.64
x2 = 0.2697	4.62	5.31	6.02	6.81	7.59	8.41	9.25	10.1	11.2	12.4
x2 = 0.4538	7.02	7.59	8.23	8.89	9.58	10.4	11.1	12	13	13.9
x2 = 0.689	4.17	4.7	5.22	5.84	6.48	7.14	7.88	8.69	9.56	10.5
